We go through nine compounds from patent US20260007760A1, “CAMPTOTHECIN DERIVATIVES THAT BIND TO DDX5 PROTEIN AND PRODRUGS THEREOF” (priority 2022, published 2026).

Series [1] deals with cancer cells. The following applies: cited from earlier work.
Series [2] relates to FaDu cell line. Nature of the series: Cell viability assay (CellTiter-Glo), FaDu cell line. Type of series: cell-based. The following applies: FaDu (does not express ABCG2), 3-day incubation. As to the method: After 24 hours, the cells were treated with 100 μl of drugs at 9 concentrations (serial dilutions of 1/5 each from 1,000 nM). […] Also, a control group (drug concentration 0) that was not treated with drugs was prepared. Incubation at constant temperature (37° C., 5% CO2) was performed for 3 or 6 days. 100 ul of CellTiter-Glo reagent (using CellTiter-Glo® Luminescent Cell Viability Assay kit (Promega, G7571)) was added to each well and pipetted. After incubating at constant temperature (RT) for 10 minutes, luminescence was measured.
Cell viability assays were performed on MDA-MB-453 (HER2++) cell lines and FaDu (HER2+) cell lines using the same method as Example 2-2.
In general terms: Cellular ATP, detected with luciferase, serves as a proxy for viable cell number.

Series [3] in a line: Lactone to carboxylate form conversion in pH 7.4 (RP-HPLC). In kind it is physicochemical. The following applies: for Conversion from lactone form (active) to carboxylate form (inactive) compared with reference compounds: pH 7.4, references exatecan, DXd, SN-38, FL118.
The conditions of series [4]: over 21 days; bioconjugated to anti-HER2 antibody, DAR 8; cited from earlier work.
Series [5] has as its system Survivin, cIAP2, Mcl-1, XIAP. Nature of the series: Western blot, expression inhibition of anti-apoptotic proteins in FaDu cell line. Conditions: Western blot, 0, 10, 100 nM, 24 hours. In kind it is cell-based. (In western blotting, separated proteins are transferred to a membrane and probed.)
The conditions of series [6]: mouse, in vivo, ip.
Series [7] deals with MDA-MB-453 (HER2++) cell line. Kind of series: Cell viability assay (CellTiter-Glo), MDA-MB-453 cell line. The following applies: MDA-MB-453 and FaDu cell lines, 3 days.
Series [8] relates to FaDu (Trop2+++) cell lines and Calu-6 (Trop2−−) cell lines. Kind of series: In vitro cell cytotoxicity test of Sacituzumab-25-6 (6 days). The following applies: free payload.
Series [9] concerns the target DDX5 (Homo sapiens, UniProt P17844). Kind of series: Western blot, DDX5 degradation in two cell lines (FaDu, A549). The following applies: FaDu and A549, 0, 10, 100 nM.
For series [10] the following is noted: days 1 and 8 of a 21-day cycle, 25 patients; cited from earlier work.
For series [11] the following is noted: human, in vivo; cited from earlier work.

Sequence of DDX5 (P17844 whole entry): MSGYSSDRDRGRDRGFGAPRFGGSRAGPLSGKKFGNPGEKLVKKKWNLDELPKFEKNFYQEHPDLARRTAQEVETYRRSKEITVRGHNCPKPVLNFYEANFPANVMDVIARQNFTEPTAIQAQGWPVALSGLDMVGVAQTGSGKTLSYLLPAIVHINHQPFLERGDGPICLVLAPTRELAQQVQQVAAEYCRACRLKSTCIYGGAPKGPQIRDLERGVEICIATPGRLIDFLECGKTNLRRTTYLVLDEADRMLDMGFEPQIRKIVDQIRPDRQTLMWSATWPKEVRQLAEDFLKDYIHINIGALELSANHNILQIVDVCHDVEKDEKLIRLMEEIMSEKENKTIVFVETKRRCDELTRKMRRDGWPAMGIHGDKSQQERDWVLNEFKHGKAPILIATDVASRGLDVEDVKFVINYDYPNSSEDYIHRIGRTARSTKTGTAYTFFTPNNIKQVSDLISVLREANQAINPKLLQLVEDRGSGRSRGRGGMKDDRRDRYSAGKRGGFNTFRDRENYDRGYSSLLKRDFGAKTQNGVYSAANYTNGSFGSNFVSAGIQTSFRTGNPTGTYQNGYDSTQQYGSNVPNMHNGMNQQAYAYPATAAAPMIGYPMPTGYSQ

Regarding `CCc1c2c(nc3ccc(O)cc13)-c1cc3c(c(=O)n1C2)COC(=O)[C@]3(O)CC` [SN-38], the IC50 values result in [1] (several cell lines) is listed as “nanomolar range”.
For the compound `CC[C@@]1(O)C(=O)OCc2c1cc1n(c2=O)Cc2c-1nc1cc3c(c4c1c2[C@@H](NC(=O)[C@@H](O)C1CC1)CC4)OCO3` [PBX-7024], the “Cell killing efficacy (IC50)” value in [2] is “strong cell killing efficacy”. Further, the “Conversion from lactone form (active) to carboxylate form (inactive) compared with reference compounds” value (“Conversion … compared with reference compounds” below) in series [3] was “more rapidly and at a higher rate than other reference compounds”.
As for `CC[C@@]1(O)C(=O)OCc2c1cc1n(c2=O)Cc2c-1nc1cc(F)c(C)c3c1c2[C@@H](NC(=O)CO)CC3` [Dxd], in [3] (pH 7.4, 37° C.), the “Degree of formation of the carboxylate form” value is “about 76.5%” and the “Rate of conversion from the lactone form to the carboxylate form” value (from here on “Rate of conversion from the lactone form”) is on record as 0.6 % per minute. In series [1], the “Activity in cancer cells relative to SN-38” value is given as 10 times. For the same compound, the Released in plasma in series [4] is listed as 2.1%.
With `CC[C@@]1(O)C(=O)OCc2c1cc1n(c2=O)Cc2c-1nc1cc(F)c(C)c3c1c2[C@@H](N)CC3` [Exatecan], in series [5], the “Expression of anti-apoptotic proteins (Survivin, cIAP2, Mcl-1, XIAP)” value (“Expression of anti-apoptotic proteins” for short) is listed as “strongly inhibits the expression of anti-apoptotic proteins”.
In the case of `CC[C@@]1(O)C(=O)OCc2c1cc1n(c2=O)Cc2c-1nc1cc3c(c4c1c2[C@@H](NC(=O)[C@@H](C)O)CC4)OCO3` [PBX-7016], the “Expression of anti-apoptotic proteins” value in series [5] was “decrease in the expression of Survivin, cIAP2, Mcl-1, and XIAP as the concentration increased”. Besides, the “Rate of conversion from the lactone form” value in series [3] (pH 7.4, 37° C.) was 0.8 % per minute. For the same compound, the “Conversion … compared with reference compounds” value in [3] was “more rapidly and at a higher rate than other reference compounds”. Further, in series [6], the “Clearance from the blood” value is “cleared from the blood very quickly”. In series [7], the “IC50 level compared with Dxd” value was “equivalent to or higher than Dxd”. Further, in series [8], the “Cell membrane penetration of non-target cells / cell death” value is “can penetrate the cell membrane of non-target cells”. Moreover, the DDX5 degradation result in series [9] is given as “inhibited DDX5 in a concentration-dependent manner”.
For `CC[C@@]1(O)C(=O)OCc2c1cc1n(c2=O)Cc2cc3cc4c(cc3nc2-1)OCO4` [FL118], in series [5], the “Expression of anti-apoptotic proteins” value is recorded as “strongly inhibiting the expression of anti-apoptotic proteins”. In addition, the “Cytotoxicity relative to SN-38 (times more potent)” value in series [1] (various cancer cell lines) is listed as 5-10 times. The DDX5 degradation entry in series [9] was “superior to other substances in DDX5 degradation”.
For `CC[C@@]1(O)C(=O)OCc2c1cc1n(c2=O)Cc2c-1nc1cc3c(c4c1c2[C@@H](N)CC4)OCO3` [PBX-7011, (1S,10S)-1-amino-10-ethyl-10-hydroxy-1,2,3,10,13,16-hexahydro-11H,14H-benzo[de][1,3]dioxolo[4,5-g]pyrano[3′,4′:6,7]indolizino[1,2-b]quinoline-11,14-dione], the “Expression of anti-apoptotic proteins” value in series [5] is “decrease in the expression of Survivin, cIAP2, Mcl-1, and XIAP as the concentration increased”.
For the compound `CC[C@@]1(O)C(=O)OCc2c1cc1n(c2=O)Cc2c-1nc1cc3c(c4c1c2[C@@H](NC(=O)CO)CC4)OCO3` [PBX-7014], the “Expression of anti-apoptotic proteins” value in series [5] is “decrease in the expression of Survivin, cIAP2, Mcl-1, and XIAP as the concentration increased”. For the same compound, the “Rate of conversion from the lactone form” value in series [3] (pH 7.4, 37° C.) is given as 0.8 % per minute. The “Conversion … compared with reference compounds” value in series [3] was “more rapidly and at a higher rate than other reference compounds”.
As for sacituzumab govitecan, the Dose-limiting toxicity result in series [10] was “neutropenia”. Further, in [11], the “Diarrhea, all-grade” value was 65%; the Febrile neutropenia is given as 7%; the “Neutropenia, Grade≥3” value was 47%; the “Neutropenia, all-grade” value is recorded as 61%. Also, the Neutropenic colitis in [11] is on record as 0.5%.
